The values below come from patent US20250195552A1, “METHODS OF USING AVERMECTIN COMPOSITIONS FOR THE TREATMENT OF INFLAMMATORY DISORDERS AND DOSING REGIMENS” (priority 2022, published 2025).

A word on the AUC(0-t): it is the area under the concentration-time curve up to a stated or last time point. A high value points to more exposure. As usually defined, the Cmax is the maximum level reached in the sampled fluid or tissue.

In one series the test system is focal seizures. The following applies: cited from earlier work.
In the next series the test system is PBMCs of human subjects. Put plainly: Phase 1: IL-17 secretion in PBMCs stimulated ex vivo after oral administration. The following applies: oral 10-120 mg, significant at 80 and 120 mg SAD and at all MAD doses, anti-CD3/CD28 48 hrs. The method, then:
The supernatants were analyzed for IL-17 by ELISA.

Series [1] is described as follows: Ivermectin solubility determination in excipients.
Experimental: The solubility assessments were performed by continually adding a known amount of the API into each individual excipient and letting the excipient reach solubility equilibrium via API saturation (visible solid observed). The experiments were conducted at ambient conditions (25° C.) and were left to mix on a stir plate at 500 RPM for at least 72 hours.
The test system of a further series is LPS-induced human PBMCs. The series is described as follows: LPS-induced secretion of TNF-α, IL-6 and IL-23 in PBMCs. The format is cell-based. The note with it: PBMC, LPS activation for 2 days, ELISA. The procedure: The supernatants were analyzed for TNF-α, IL-6, and IL-23 by ELISA.
For orientation: ELISA stands for enzyme-linked immunosorbent assay.

The subject of series [2] is Th17-skewed human CD4+ T cells. The series is described as follows: Cytokine secretion in Th17-skewed CD4+ T cells (ELISA). It counts as cell-based. The procedure: The supernatants were analyzed for IL-17, TL-21 and IFN-γ by ELISA.
The subject of series [3] is TLR-induced human monocytes. Put plainly: IL-1β secretion in TLR-induced monocytes. The format is cell-based. The note with it: induced by LPS, Pam2CSK4 and Pam3CSK4 (100 ng/ml), 24 hours, ELISA. The method, then: The supernatants were analyzed for IL-1β by ELISA.
Series [4] relates to STAT3 and IkBα phosphorylation in human CD4+ T cells. The series is described as follows: Th17-induced STAT3 and IkBα phosphorylation (Western Blot). It counts as cell-based. The following applies: Th17-skewing conditions, 2 hours. The method, then:
The cell lysates were prepared and analyzed by Western Blot. One representative of three different experiments is shown.

The next series deals with C57BL/6 mice. The series is described as follows: Experimental autoimmune encephalomyelitis (EAE) model of MS. The format is in vivo, mouse. The note with it: 1, 2, 4 mg/kg oral once daily, therapeutic from Day 14 to Day 34.
For another series, the system named is human PBMCs. Put plainly: IL-17 and IFN-γ secretion in PBMCs stimulated by anti-CD3/CD28 in vitro. It counts as cell-based. The following applies: anti-CD3/CD28 stimulation, 48 hours, ELISA. The method, then:
The supernatants were analyzed for IL-17 and IFN-γ by ELISA. One representative of three different experiments is shown.

The next series has as its system Sprague-Dawley rats. The series is described as follows: Animal model of infantile spasms (NMDA-induced). It counts as in vivo, rat. The note with it: 2 and 4 mg/kg i.p. daily P10-P15; p<0.05. From the text:
A two-stage model of infantile spasms was developed (FIG. 23A). Pregnant Sprague-Dawley rats receive two injections of betamethasone on gestational (G) day 15. Offspring of those pregnancies are used for experiments during infancy, postnatal days (P) 10-15. Spasms are induced by i.p. injection of N-methyl-D-aspartic acid (NMDA), which is graded depending on the postnatal age of the subjects.
Days of dosing were P10, P11, P12, P13, P14 and P15.

Series [5] is described as follows: Pharmacokinetics of Ivermectin B1a in SD rat plasma after IV or oral administration. The procedure: Thirty-six male Sprague Dawley rats were randomly assigned into four groups, with nine male rats in each group. All animals in all groups are fasted overnight prior to the experimental date.
Blood samples were collected from 6 of 9 animals per group at 0.5, 1, 2, 3, 4, 6, 8, 24, 72, 120, 168 hours post-dose.

Series [6] relates to Monocytes-derived dendritic cells (moDC). Put plainly: TNF-α and IL-6 secretion in dendritic cells. The format is cell-based, human. The following applies: moDC stimulated by Pam2CSK4 and Pam3CSK4, 24 hours, ELISA. The method, then: Monocytes-derived dendritic cells (moDC) were differentiated by culturing purified human monocytes with 25 ng/mL hGM-CSF and 50 ng/mL hTL-4 for 5-7 days to reach full differentiation. […] The supernatants were analyzed for IL-6 and TNF-α by ELISA. Bar graphs represent pooled data from 2-3 experiments.

Series [7] relates to human CD4+ T cells activated under Th17 skewing conditions. Put plainly: FoxP3 expression (RT-PCR) and percentage of FoxP3+ T cells (Flow Cytometry). The format is cell-based. The following applies: 1.5 mM of ivermectin, 5 days. The procedure:
FoxP3, IL-17A and RORc mRNA expression levels were tested by RT-PCR (A). The percentage of FoxP3^+ T cells was determined by Flow Cytometry by using intra-cellular staining with PE-conjugated anti-Foxp3 antibody (B).

[8] abbreviates: single IV 2 mg/kg, fasting male SD rats, n = 6.

The structures appear in SMILES notation. pEC50: −log10 of the molar value. Entries after “also recorded” stand apart in the source; their conditions may differ. Where two headings read alike, the source gives them in different places. Bounds are passed on as bounds.

Experimental for C57BL/6 mice: Vehicle was 1.6% DMSO in water. […] These were frozen at −20° C. Every 3 to 4 days, one aliquot was thawed and diluted with water to create a fine suspension at 0.8 mg/mL (for 4 mg/kg dosing). Final DMSO concentration was 1.6%. […] Per customer, all dosing formulations were stable for up to 4 days at 4° C. FTY720 stock solution (30 mg/mL in ethanol) was prepared for all ongoing studies. Daily, the FTY720 stock solution was diluted with water to the final dosing concentration of 0.6 mg/mL.
A balanced distribution of mice was confirmed by comparing mean day of onset, average score at EAE onset, average score on Day 14 and average weight on Day 13.
EAE was induced on Day 0 by myelin oligodendrocyte glycoprotein (MOG35-55)/complete Freund's adjuvant (CFA) immunization, followed by pertussis toxin (PTX) injections on Days O and 1. Treatment was therapeutic, starting on Day 14. […] Treatment continued through Day 34. Mice were observed through the end of the study, Day 35.
Clinical scores were assessed as follows: 1=limp tail, 2=partial hind leg paralysis, 3=complete hind leg paralysis, 4=complete hindleg and partial front leg paralysis; 5=moribund.

With `NC(=O)O[C@@H](Cn1ncnn1)c1ccccc1Cl` [XCOPRI, Cenobamate], the “Placebo-adjusted >50% Focal Seizure Reduction” value with focal seizures (400 mg) is 39%. For the same compound, the “Placebo-adjusted Median Reduction in Focal Seizure Frequency” value (from here on “Placebo-adjusted Median Reduction”) in the series on focal seizures (4200 mg) is on record as 31%.
With `CC[C@@H](C(N)=O)N1CCCC1=O` [KEPPRA, Leviteracetam], in the series on focal seizures (3000 mg), the “Placebo-adjusted >50% Focal Seizure Reduction” value is 29% and the “Placebo-adjusted Median Reduction” value is reported as 23-31%.
As to `CCC[C@@H]1CC(=O)N([C@@H](CC)C(N)=O)C1` [BRIVIACT, Brivaracetam], in the series with focal seizures (200 mg), the “Placebo-adjusted >50% Focal Seizure Reduction” value is recorded as 18% and the “Placebo-adjusted Median Reduction” value is recorded as 26%.
For the compound `Cc1cc(N2CCc3cc(F)ccc3C2)cc(C)c1NC(=O)CC(C)(C)C` [XEN1101], in the series on focal seizures (25 mg), the “Placebo-adjusted >50% Focal Seizure Reduction” value is on record as 40% and the “Placebo-adjusted Median Reduction” value is 35%.
For the compound `NC(=O)N1c2ccccc2C[C@H](O)c2ccccc21` [APTIOM, Eslicarbazepine], the “Placebo-adjusted >50% Focal Seizure Reduction” value in the series with focal seizures (1200 mg) was 20%. Further, the “Placebo-adjusted Median Reduction” value with focal seizures (2000 mg) is 14-24%.
`CCC(C)C1OC2(CCC1C)CC1CC(CC=C(C)C(OC3CC(OC)C(OC4CC(OC)C(O)C(C)O4)C(C)O3)C(C)C=CC=C3COC4C(O)C(C)=CC(C(=O)O1)C34O)O2` (stereo not drawn) [Ivermectin]: the “ability of T cells to secrete IL-17 in response to TCR stimulation ex vivo” value with PBMCs of human subjects is given as “down-regulates”. Also, the Solubility in series [1] (in Capryol 90, 25° C.) is 150.92 mg/g; in series [1] (in Fractionated Coconut oil, 25° C.), 16.55 mg/g; in [1] (in Glycerin, 25° C.), less than 0.1 mg/g; in series [1] (in Kolliphor EL, 25° C.) it was 95.85 mg/g; in series [1] (in Labrafil M 2125 CS, 25° C.), 35.32 mg/g; in series [1] (in Labrasol ALF, 25° C.) it was 126.36 mg/g. Besides, the Solubility worked out at 71.96 mg/g in [1] (in LauroglycolTM FCC, 25° C.); 60.17 mg/g in series [1] (in Maisine CC, 25° C.); 164.06 mg/g in [1] (in Masester E8120, 25° C.); 16.49 mg/g in series [1] (in Medium Chain Triglyceride, 25° C.); 48.58 mg/g in series [1] (in Oleic acid, 25° C.); 4.71 mg/g in [1] (in Olive oil, 25° C.). Further, the Solubility turned out to be 112.92 mg/g in series [1] (in PEG 400, 25° C.); 25.61 mg/g in [1] (in Propylene glycol, 25° C.); 6.72 mg/g in series [1] (in Soybean oil, 25° C.); 97.66 mg/g in series [1] (in Span 20, 25° C.); 54.04 mg/g in [1] (in Span 80, 25° C.); 58.75 mg/g in [1] (in Triacetin, 25° C.). Also, the Solubility in [1] (in Tween 80, 25° C.) was determined as 88.26 mg/g; in series [1] (in Vitamin E TPGS, table title 25° C., text: conducted at 40° C.), 82.98 mg/g. Also, the pEC50 in the series on LPS-induced human PBMCs (read-out: EC50, decrease of IL-6) was 5.89; with LPS-induced human PBMCs (read-out: EC50, decrease of IL-23), 6.33; in the series with LPS-induced human PBMCs (read-out: EC50, decrease of TNF-α) it was 5.85; in series [2] (Th17-skewing conditions, additional experiment (FIG. 6B), read-out: EC, inhibition of CXCL13 secretion), 6.42; in series [2] (anti-CD3/CD28 + IL-1β + TGF-β (Th17-skewing), 48 hours, ELISA, read-out: EC50, inhibition of IFN-γ secretion) it was 6.27; in series [2] (anti-CD3/CD28 + IL-1β + TGF-β (Th17-skewing), 48 hours, ELISA, read-out: EC50, inhibition of IL-17 secretion) it was 6.35. Further, the pEC50 is 6.44 in [2] (anti-CD3/CD28 + IL-1β + TGF-β (Th17-skewing), 48 hours, ELISA, read-out: EC50, inhibition of IL-21 secretion); 6.01 in the series with human PBMCs (read-out: EC50, decrease of IFN-γ); 6.38 with human PBMCs (read-out: EC50, decrease of IL-17). The IL-1β secretion entry in series [3] was “significantly down-regulates; also recorded: reduced IL-1β in a dose-dependent manner”. The STAT3 phosphorylation result in [4] was “dose-dependent reduction”. Moreover, the “inhibitor molecule protein (IkB)α phosphorylation” value in series [4] was “dose-dependent reduction”. Moreover, the “limb paralysis (clinical score) in EAE model of MS” value in the series with C57BL/6 mice is on record as “significantly downregulates limb paralysis”. Besides, the “occurrence (number) of spasms triggered on P15 vs vehicle controls” value in the series on Sprague-Dawley rats is reported as “significantly suppressed occurrence of spasms; also recorded: significantly fewer spasms”. Moreover, in series [5] (setting [8]), the “AUC(0-t)” value is 8259.31 ng·h/mL. For the same compound, the “AUC(0-∞)” value in series [5] (setting [8]) stood at 8273.53 ng·h/mL. Moreover, the Cmax in [5] (setting [8]) stood at 1722.67 ng/mL. The “MRT(0-t)” value in series [5] (setting [8]) came out at 10.58 h. The “MRT(0-∞)” value in series [5] (setting [8]) was found to be 10.81 h. Moreover, the T1/2 in [5] (setting [8]) was found to be 14.82 h; in series [5] (single IV injection 2 mg/kg, male SD rats with fasting), 14.82 ± 0.72 h. For the same compound, the IL-6 secretion entry in series [6] was “significantly and in a dose-dependent manner down-regulates; also recorded: dose dependent decrease”. Also, in [6], the TNF-α secretion entry was “significantly and in a dose-dependent manner down-regulates; also recorded: dose dependent decrease”. The “increase in the percentage of Foxp3+ T cells” value in series [7] (Flow Cytometry) stood at 50%. Also, the “FoxP3 mRNA levels” value in [7] (RT-PCR) is “up-regulation”. For the same compound, the “IL-17A mRNA expression” value in series [7] (RT-PCR) is “decreased”. Further, in series [7] (RT-PCR), the “RORc mRNA expression” value is given as “decreased”.
Take `COC[C@@H](NC(C)=O)C(=O)NCc1ccccc1` [VIMPAT, Lacosamide]: in the series on focal seizures (400 mg), the “Placebo-adjusted >50% Focal Seizure Reduction” value is recorded as 17% and the “Placebo-adjusted Median Reduction” value is given as 15-29%.
